US8952024B2, “Herbicidal pyrimidone derivatives” (E I du Pont de Nemours and Company, priority 2009, dated 2015)

Tests used:
Test in all cases: Test B pre-/postemergence plant response
Assay type in all cases: in vivo
[1] = system: blackgrass (Alopecurus myosuroides)
Procedure, shortened: (§1)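 Seeds were sown in loam soil/sand blend and treated preemergence with compound in non-phytotoxic solvent mixture containing surfactant; postemergence sprays, same formulation, went onto plants 2 to 18 cm (1- to 4-leaf stage) in peat-based planting medium. Greenhouse 13 to 15 days, then visual rating versus untreated controls, 0 (no effect) to 100 (complete control).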

[2] = system: giant foxtail (Setaria faberii)
Procedure, shortened: as §1

[3] = system: Surinam grass (Brachiaria decumbens)
Procedure, shortened: as §1

[4] = system: pigweed (Amaranthus retroflexus)
Procedure, shortened: as §1

[5] = system: ragweed (common ragweed, Ambrosia elatior)
Procedure, shortened: as §1

[6] = system: kochia (Kochia scoparia); conditions: Postemergence
Procedure, shortened: as §1

[7] = system: Italian ryegrass (Lolium multiflorum)
Procedure, shortened: as §1

[8] = system: woolly cupgrass (Eriochloa villosa)
Procedure, shortened: as §1

[9] = system: johnsongrass (Sorghum halepense)
Procedure, shortened: as §1

[10] = system: soybean (Glycine max)
Procedure, shortened: as §1

[11] = system: velvetleaf (Abutilon theophrasti)
Procedure, shortened: as §1

[12] = system: corn (Zea mays)
Procedure, shortened: as §1

[13] = system: downy bromegrass (Bromus tectorum)
Procedure, shortened: as §1

[14] = 250 g ai/ha, Preemergence, 0 to 100 scale
[15] = Postemergence, 31 g ai/ha, scale 0 to 100 (0 no effect, 100 complete control)
[16] = Postemergence, 62 g ai/ha, scale 0 (no effect) to 100 (complete control), 13 to 15 days
[17] = Postemergence, 125 g ai/ha, visual rating after 13 to 15 days, scale 0 (no effect) to 100 (complete control)
[18] = Postemergence, 250 g ai/ha, scale 0 to 100
[19] = Preemergence, 31 g ai/ha, scale 0 to 100 (0 no effect, 100 complete control)
[20] = Preemergence, 62 g ai/ha, scale 0 to 100 (0 no effect, 100 complete control)
[21] = Preemergence, 125 g ai/ha, 0 to 100 scale
[22] = Postemergence, 31 g ai/ha, 0 to 100 scale (0 no effect, 100 complete control)
[23] = Postemergence, 62 g ai/ha, scale 0 to 100 (0 no effect, 100 complete control)
[24] = Postemergence, 125 g ai/ha, scale 0 to 100 (0 no effect, 100 complete control)
[25] = Postemergence, 250 g ai/ha, scale 0 to 100 (0 no effect, 100 complete control), 13 to 15 days

Cc1cccc(Cl)c1-n1c(-c2ccccc2)ncc(C(=O)C2=C(O)CCCC2=O)c1=O [Compound 46]
75: Plant response rating, Surinam Grass [3, 16] | Surinam Grass plant response rating [3, 21] | Plant response rating, Pigweed [4, 16] | Plant response rating, Ragweed [5, 16] | Johnsongrass plant response rating [9, 18] | Corn plant response rating [12, 18]
0: Plant response rating, Blackgrass [1, 14] | Plant response rating, Blackgrass [1, 15] | Plant response rating, Blackgrass [1, 19] | Plant response rating, Blackgrass [1, 20] | Blackgrass plant response rating [1, 21] | Plant response rating, Foxtail, Giant [2, 19] | Plant response rating, Foxtail, Giant [2, 20] | Plant response rating, Surinam Grass [3, 19] | Plant response rating, Kochia ([6]; 62 g ai/ha, scale 0 (no effect) to 100 (complete control), 13 to 15 days) | Plant response rating, Ryegrass, Italian [7, 14] | Plant response rating, Ryegrass, Italian [7, 19] | Ryegrass, Italian plant response rating [7, 21] | Plant response rating, Johnsongrass [9, 19] | Plant response rating, Soybean [10, 19] | Plant response rating, Velvetleaf [11, 19] | Plant response rating, Corn [12, 14] | Plant response rating, Corn [12, 19] | Plant response rating, Corn [12, 20] | Corn plant response rating [12, 21] | Plant response rating, Bromegrass, Downy [13, 14] | Plant response rating, Bromegrass, Downy [13, 15] | Plant response rating, Bromegrass, Downy [13, 19] | Plant response rating, Bromegrass, Downy [13, 20] | Bromegrass, Downy plant response rating [13, 21]
20: Plant response rating, Kochia ([6]; 125 g ai/ha, visual rating after 13 to 15 days, scale 0 (no effect) to 100 (complete control)) | Plant response rating, Cupgrass, Woolly [8, 16] | Plant response rating, Corn [12, 15]
45: Cupgrass, Woolly plant response rating [8, 18] | Plant response rating, Cupgrass, Woolly [8, 20] | Johnsongrass plant response rating [9, 21]
65: Plant response rating, Velvetleaf [11, 14]
35: Plant response rating, Corn [12, 16]
55: Velvetleaf plant response rating [11, 21]
5: Plant response rating, Blackgrass [1, 16] | Plant response rating, Ryegrass, Italian [7, 16] | Plant response rating, Ryegrass, Italian [7, 17] | Plant response rating, Bromegrass, Downy [13, 16]
85: Foxtail, Giant plant response rating [2, 18] | Plant response rating, Pigweed [4, 19] | Plant response rating, Velvetleaf [11, 17]
100: Plant response rating, Pigweed [4, 14] | Plant response rating, Ragweed [5, 14] | Plant response rating, Ragweed [5, 19] | Ragweed plant response rating [5, 21]
30: Kochia plant response rating ([6]; 250 g ai/ha, scale 0 to 100)
10: Plant response rating, Blackgrass [1, 17] | Blackgrass plant response rating [1, 18] | Plant response rating, Cupgrass, Woolly [8, 15] | Plant response rating, Cupgrass, Woolly [8, 19] | Plant response rating, Johnsongrass [9, 20] | Plant response rating, Bromegrass, Downy [13, 17]
60: Plant response rating, Cupgrass, Woolly [8, 14] | Plant response rating, Corn [12, 17]
70: Plant response rating, Foxtail, Giant [2, 15] | Plant response rating, Johnsongrass [9, 14] | Plant response rating, Johnsongrass [9, 17]
15: Foxtail, Giant plant response rating [2, 21] | Soybean plant response rating [10, 21]
90: Plant response rating, Surinam Grass [3, 14] | Plant response rating, Soybean [10, 17]
50: Cupgrass, Woolly plant response rating [8, 21] | Plant response rating, Johnsongrass [9, 16]
25: Plant response rating, Foxtail, Giant [2, 14] | Plant response rating, Cupgrass, Woolly [8, 17] | Plant response rating, Soybean [10, 14] | Bromegrass, Downy plant response rating [13, 18]
95: Pigweed plant response rating [4, 21]
80: Plant response rating, Foxtail, Giant [2, 16] | Plant response rating, Foxtail, Giant [2, 17] | Plant response rating, Surinam Grass [3, 17] | Plant response rating, Pigweed [4, 17] | Plant response rating, Ragweed [5, 17] | Plant response rating, Soybean [10, 16] | Plant response rating, Velvetleaf [11, 16]

O=C(C1=C(O)C2CCC(C2)C1=O)c1cnc(-c2ccsc2)n(CC2CCCO2)c1=O (stereo not drawn) [Compound 229]
95: Plant response rating, Foxtail, Giant [2, 25] | Plant response rating, Pigweed [4, 23] | Plant response rating, Ragweed [5, 25] | Plant response rating, Soybean [10, 22]
30: Plant response rating, Blackgrass [1, 25] | Plant response rating, Bromegrass, Downy [13, 25]
90: Plant response rating, Surinam Grass [3, 25] | Plant response rating, Cupgrass, Woolly [8, 25]
70: Plant response rating, Surinam Grass [3, 23] | Plant response rating, Kochia ([6]; 62 g ai/ha, scale 0 to 100 (0 no effect, 100 complete control)) | Plant response rating, Cupgrass, Woolly [8, 22] | Plant response rating, Johnsongrass [9, 22] | Plant response rating, Corn [12, 22]
65: Plant response rating, Surinam Grass [3, 22]
80: Plant response rating, Foxtail, Giant [2, 23] | Plant response rating, Foxtail, Giant [2, 24] | Plant response rating, Pigweed [4, 22] | Plant response rating, Ragweed [5, 22] | Plant response rating, Ragweed [5, 23] | Plant response rating, Kochia ([6]; 125 g ai/ha, scale 0 to 100 (0 no effect, 100 complete control)) | Plant response rating, Cupgrass, Woolly [8, 24] | Plant response rating, Corn [12, 23]
5: Plant response rating, Blackgrass [1, 24] | Plant response rating, Bromegrass, Downy [13, 22]
20: Plant response rating, Bromegrass, Downy [13, 24]
15: Plant response rating, Bromegrass, Downy [13, 23]
100: Plant response rating, Pigweed [4, 25] | Plant response rating, Kochia ([6]; 250 g ai/ha, scale 0 to 100 (0 no effect, 100 complete control), 13 to 15 days) | Plant response rating, Johnsongrass [9, 23] | Plant response rating, Johnsongrass [9, 24] | Plant response rating, Johnsongrass [9, 25]
0: Plant response rating, Blackgrass [1, 22] | Plant response rating, Blackgrass [1, 23] | Plant response rating, Ryegrass, Italian [7, 22] | Plant response rating, Ryegrass, Italian [7, 23]
75: Plant response rating, Foxtail, Giant [2, 22] | Plant response rating, Cupgrass, Woolly [8, 23] | Plant response rating, Velvetleaf [11, 22] | Plant response rating, Velvetleaf [11, 23]
10: Plant response rating, Ryegrass, Italian [7, 25]
85: Plant response rating, Velvetleaf [11, 25] | Plant response rating, Corn [12, 24] | Plant response rating, Corn [12, 25]
55: Plant response rating, Kochia ([6]; 31 g ai/ha, 0 to 100 scale (0 no effect, 100 complete control))
98: Plant response rating, Soybean [10, 23] | Plant response rating, Soybean [10, 25]
